Measurements published in patent publication US20120225062A1 (priority 2011, published 2012).

How the values were obtained:
[1] = test system: KMS11 (human myeloma cell line); experiment: Cell Proliferation Assay (CellTiter-Glo, 3 days); assay type: cell-based; details: KMS-11, 72 h, KMS11-luc cells
Summary of the method: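 EC50 from CellTiter-Glo luminescence after 3-day, 37° C compound treatment of KMS11 cells seeded at 2000 per well in IMDM plus 10% FBS.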

[2] = molecular target: Pim 1 (Homo sapiens, UniProt P11309); experiment: Pim 1 AlphaScreen assay (high ATP)
[3] = molecular target: Pim 2 (Homo sapiens, UniProt Q9P1W9); experiment: Pim 2 AlphaScreen assay (high ATP)
Experimental: The activity of Pim 1, Pim 2, & Pim 3 is measured using a homogeneous bead based system quantifying the amount of phosphorylated peptide substrate resulting from kinase-catalyzed phosphoryl transfer to a peptide substrate. Compounds to be tested are dissolved in 100% DMSO and directly distributed to a white 384-well plate at 0.25 μl per well. […] This is followed by the addition of 5 μl/well of Pim 1, Pim 2 or Pim 3 kinase in assay buffer (concentrations described below). Final assay concentrations (described below) are in 2.5% DMSO. The reactions are performed for ˜2 hours, then stopped by the addition of 10 μl of 0.75 μg/ml anti-phospho Ser/Thr antibody (Cell Signaling), 10 μg/ml Protein A AlphaScreen beads (Perkin Elmer), and 10 μg/ml streptavidin coated AlphaScreen beads in stop/detection buffer (50 mM EDTA, 95 mM Tris, pH=7.5, 0.01% Tween-20). The stopped reactions are incubated overnight in the dark. The phosphorylated peptide is detected via an oxygen anion initiated chemiluminescence/fluorescence cascade using the Envision plate reader (Perkin Elmer).

[4] = molecular target: Pim 3 (Homo sapiens, UniProt Q86V86); experiment: Pim 3 AlphaScreen assay (high ATP)

Pim 2, sequence (Q9P1W9 whole entry): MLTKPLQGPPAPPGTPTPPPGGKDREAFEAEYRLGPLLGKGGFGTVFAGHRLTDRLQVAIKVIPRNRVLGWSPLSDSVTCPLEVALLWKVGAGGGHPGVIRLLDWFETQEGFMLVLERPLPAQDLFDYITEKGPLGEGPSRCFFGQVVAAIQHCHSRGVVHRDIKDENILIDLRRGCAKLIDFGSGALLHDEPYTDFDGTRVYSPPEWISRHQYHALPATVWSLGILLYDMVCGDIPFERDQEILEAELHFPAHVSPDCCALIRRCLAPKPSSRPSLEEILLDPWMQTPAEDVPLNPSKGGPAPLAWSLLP
Pim 1, sequence (P11309 whole entry): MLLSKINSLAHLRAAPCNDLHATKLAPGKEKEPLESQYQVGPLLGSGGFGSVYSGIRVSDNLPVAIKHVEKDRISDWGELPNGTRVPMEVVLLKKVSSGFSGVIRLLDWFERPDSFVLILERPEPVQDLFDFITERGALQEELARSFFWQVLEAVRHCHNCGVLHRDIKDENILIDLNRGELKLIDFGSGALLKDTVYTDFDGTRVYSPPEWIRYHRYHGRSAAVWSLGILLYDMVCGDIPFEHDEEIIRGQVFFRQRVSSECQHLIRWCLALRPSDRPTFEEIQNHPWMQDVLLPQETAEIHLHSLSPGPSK

Structure (SMILES) | EC50 [1] [nM] | IC50 [2] [nM] | IC50 [3] [nM] | IC50 [4] [nM]
COCCc1cc(F)c(-c2nc(C(=O)Nc3cnccc3[C@H]3C[C@@H](N)[C@H](O)[C@@H](C)C3)ccc2F)c(F)c1 [Example 108, N-(4-((1R,3R,4R,5S)-3-amino-4-hydroxy-5-methylcyclohexyl)pyridin-3-yl)-6-(2,6-difluoro-4-(2-methoxyethyl)phenyl)-5-fluoropicolinamide] | 906 | 0.04 | 2.93 | 1.19
COC1(c2cc(F)c(-c3nc(C(=O)Nc4cnccc4[C@H]4C[C@@H](N)[C@H](O)[C@@H](C)C4)c(N)cc3F)c(F)c2)COC1 [Example 91, 3-amino-N-(4-((1R,3R,4R,5S)-3-amino-4-hydroxy-5-methylcyclohexyl)pyridin-3-yl)-6-(2,6-difluoro-4-(3-methoxyoxetan-3-yl)phenyl)-5-fluoropicolinamide] | 25 | 0.02 | 1.44 | 0.93
COCCc1cc(F)c(-c2nc(C(=O)Nc3cnccc3N3C[C@@H](N)[C@H](O)[C@@H](C)C3)ccc2F)c(F)c1 [Example 109, N-(4-((3R,4R,5S)-3-amino-4-hydroxy-5-methylpiperidin-1-yl)pyridin-3-yl)-6-(2,6-difluoro-4-(2-methoxyethyl)phenyl)-5-fluoropicolinamide] | 28 | 0.01 | 0.38 | 0.14
COCCOc1ccc(F)c(-c2nc(C(=O)Nc3cnccc3[C@@H]3C[C@H](C)C[C@H](N)C3)ccc2F)c1F [Example 13, N-(4-((1R,3S,5S)-3-amino-5-methylcyclohexyl)pyridin-3-yl)-6-(2,6-difluoro-3-(2-methoxyethoxy)phenyl)-5-fluoropicolinamide] | 187 | 0.04 | 9.36 | 1.27
C[C@H]1CN(c2ccncc2NC(=O)c2nc(-c3c(F)cc(C(C)(C)O)cc3F)c(F)cc2N)C[C@@H](N)[C@@H]1O [Example 102, 3-amino-N-(4-((3R,4R,5S)-3-amino-4-hydroxy-5-methylpiperidin-1-yl)pyridin-3-yl)-6-(2,6-difluoro-4-(2-hydroxypropan-2-yl)phenyl)-5-fluoropicolinamide] | 15 | 0.01 | 0.75 | 0.13
COCc1cc(F)c(-c2nc(C(=O)Nc3cnccc3N3C[C@@H](N)[C@H](O)[C@@H](C)C3)ccc2F)c(F)c1 [Example 38, N-(4-((3R,4R,5S)-3-amino-4-hydroxy-5-methylpiperidin-1-yl)pyridin-3-yl)-6-(2,6-difluoro-4-(methoxymethyl)phenyl)-5-fluoropicolinamide] | 10 | 0.03 | 1.35 | 0.47
C[C@@H]1C[C@H](N)C[C@H](c2ccncc2NC(=O)c2ccc(F)c(-c3c(F)cc(O[C@@H]4CCCOC4)cc3F)n2)C1 [Example 77, N-(4-((1R,3S,5S)-3-amino-5-methylcyclohexyl)pyridin-3-yl)-6-(2,6-difluoro-4-((R)-tetrahydro-2H-pyran-3-yloxy)phenyl)-5-fluoropicolinamide] | 48 | 0.02 | 1.84 | 1.12
C[C@@H]1C[C@H](N)C[C@H](c2ccncc2NC(=O)c2ccc(F)c(-c3c(F)cc(CC(C)(C)O)cc3F)n2)C1 [Example 84, N-(4-((1R,3S,5S)-3-amino-5-methylcyclohexyl)pyridin-3-yl)-6-(2,6-difluoro-4-(2-hydroxy-2-methylpropyl)phenyl)-5-fluoropicolinamide] | 29 | 0.02 | 1.48 | 0.52
CC(C)[C@@H]1C[C@H](N)C[C@H](c2ccncc2NC(=O)c2ccc(F)c(-c3c(F)cc(C(C)(C)O)cc3F)n2)C1 [Example 119, N-(4-((1R,3S,5S)-3-amino-5-isopropylcyclohexyl)pyridin-3-yl)-6-(2,6-difluoro-4-(2-hydroxypropan-2-yl)phenyl)-5-fluoropicolinamide] | 17 | 0.01 | 1.36 | 0.42
C[C@@H]1C[C@H](N)C[C@H](c2ccncc2NC(=O)c2ccc(F)c(-c3c(F)cc(OC4CCOCC4)cc3F)n2)C1 [Example 63, N-(4-((1R,3S,5S)-3-amino-5-methylcyclohexyl)pyridin-3-yl)-6-(2,6-difluoro-4-((tetrahydro-2H-pyran-4-yl)oxy)phenyl)-5-fluoropicolinamide] | 76 | 0.01 | 2.04 | 0.32
COCc1cc(F)c(-c2nc(C(=O)Nc3cnccc3[C@@H]3C[C@H](C)C[C@H](N)C3)ccc2F)c(F)c1 [Example 41, N-(4-((1R,3S,5S)-3-amino-5-methylcyclohexyl)pyridin-3-yl)-6-(2,6-difluoro-4-(methoxymethyl)phenyl)-5-fluoropicolinamide] | 22 | 0.04 | 2.78 | 2.14

Results, then the compound that gave them:

EC50 [1] [nM] | IC50 [2] [nM] | IC50 [3] [nM] | IC50 [4] [nM] | Structure (SMILES)
185 | 0.05 | 3.28 | 1.47 | CC(C)OCc1cc(F)c(-c2nc(C(=O)Nc3cnccc3[C@H]3C[C@@H](N)[C@H](O)[C@@H](C)C3)ccc2F)c(F)c1 [Example 148, N-(4-((1R,3R,4R,5S)-3-amino-4-hydroxy-5-methylcyclohexyl)pyridin-3-yl)-6-(2,6-difluoro-4-(isopropoxymethyl)phenyl)-5-fluoropicolinamide]
239 | 0.01 | 0.98 | 0.55 | CCOC(C)(C)c1cc(F)c(-c2nc(C(=O)Nc3cnccc3N3C[C@@H](N)[C@H](O)[C@@H](C)C3)ccc2F)c(F)c1 [Example 201, N-(4-((3R,4R,5S)-3-amino-4-hydroxy-5-methylpiperidin-1-yl)pyridin-3-yl)-6-(4-(2-ethoxypropan-2-yl)-2,6-difluorophenyl)-5-fluoropicolinamide]
526 | 0.09 | 5.58 | 6.34 | CCOC(C)(C)c1cc(F)c(-c2nc(C(=O)Nc3cnccc3[C@H]3C[C@@H](N)[C@H](O)[C@@H](C)C3)ccc2F)c(F)c1 [Example 146, N-(4-((1R,3R,4R,5S)-3-amino-4-hydroxy-5-methylcyclohexyl)pyridin-3-yl)-6-(4-(2-ethoxypropan-2-yl)-2,6-difluorophenyl)-5-fluoropicolinamide]
197 | 0.05 | 9.42 | 0.77 | C[C@@H]1C[C@H](N)C[C@H](c2ccncc2NC(=O)c2ccc(F)c(-c3c(F)cc(OCC(=O)N(C)C)cc3F)n2)C1 [Example 143, N-(4-((1R,3S,5S)-3-amino-5-methylcyclohexyl)pyridin-3-yl)-6-(4-(2-(dimethylamino)-2-oxoethoxy)-2,6-difluorophenyl)-5-fluoropicolinamide]
96 | 0.01 | 1.23 | 0.13 | C[C@@H]1C[C@H](N)C[C@H](c2ccncc2NC(=O)c2ccc(F)c(-c3c(F)cc([C@H]4CCOC4)cc3F)n2)C1 [Example 207, N-(4-((1R,3S,5S)-3-amino-5-methylcyclohexyl)pyridin-3-yl)-6-(2,6-difluoro-4-((R)-tetrahydrofuran-3-yl)phenyl)-5-fluoropicolinamide]
34 | 0.01 | 1.16 | 0.38 | C[C@H]1C[C@@H](c2ccncc2NC(=O)c2ccc(F)c(-c3c(F)cc(N4CCOCC4)cc3F)n2)C[C@@H](N)[C@@H]1O [Example 169, N-(4-((1R,3R,4R,5S)-3-amino-4-hydroxy-5-methylcyclohexyl)pyridin-3-yl)-6-(2,6-difluoro-4-morpholinophenyl)-5-fluoropicolinamide]
23 | 0.01 | 0.81 | 0.35 | Cc1cc(F)c(-c2nc(C(=O)Nc3cnccc3[C@@H]3C[C@H](C)C[C@H](N)C3)c(N)cc2F)c(F)c1 [Example 222, 3-amino-N-(4-((1R,3S,5S)-3-amino-5-methylcyclohexyl)pyridin-3-yl)-6-(2,6-difluoro-4-methylphenyl)-5-fluoropicolinamide]
114 | 0.02 | 3.49 | 1.06 | C[C@@H]1C[C@H](N)C[C@H](c2ccncc2NC(=O)c2cccc(-c3c(F)cc(C4CCOCC4)cc3F)n2)C1 [Example 192, N-(4-((1R,3S,5S)-3-amino-5-methylcyclohexyl)pyridin-3-yl)-6-(2,6-difluoro-4-(tetrahydro-2H-pyran-4-yl)phenyl)picolinamide]
> 10000 | 0.45 | 4.75 | 20.9 | C[C@@H]1C[C@H](N)C[C@H](c2ccncc2NC(=O)c2ccc(F)c(-c3c(F)cc(C(C)(C)C(=O)O)cc3F)n2)C1 [Example 181, 2-(4-(6-(4-((1R,3S,5S)-3-amino-5-methylcyclohexyl)pyridin-3-ylcarbamoyl)-3-fluoropyridin-2-yl)-3,5-difluorophenyl)-2-methylpropanoic acid]
32 | 0.03 | 1.07 | 0.37 | COc1ccc(F)c(-c2nc(C(=O)Nc3cnccc3N3C[C@@H](N)[C@H](O)[C@@H](C)C3)ccc2F)c1F [Example 214, N-(4-((3R,4R,5S)-3-amino-4-hydroxy-5-methylpiperidin-1-yl)pyridin-3-yl)-6-(2,6-difluoro-3-methoxyphenyl)-5-fluoropicolinamide]
36 | 0.06 | 2.54 | 0.88 | COC(=O)c1cc(F)c(-c2nc(C(=O)Nc3cnccc3N3C[C@@H](N)[C@H](O)[C@@H](C)C3)ccc2F)c(F)c1 [Example 215, methyl 4-(6-((4-((3R,4R,5S)-3-amino-4-hydroxy-5-methylpiperidin-1-yl)pyridin-3-yl)carbamoyl)-3-fluoropyridin-2-yl)-3,5-difluorobenzoate]
